Experimental data published in paper PMC11989707, “Synthesis, Characterization, and Preliminary In Vitro Anticancer Activity of Zinc Complexes Containing Amino Acid-Derived Imidazolium-Based Dicarboxylate Ligands” (International Journal of Molecular Sciences, 2025).
Where two headings read alike, the source gives them in different places.

How the values were obtained:
[1] = system: HaCaT cells (human keratinocytes); assay: Resazurin cell viability assay, non-malignant keratinocytes; assay type: cell-based; conditions: resazurin
Experimental: (§1) The cytotoxicity of complexes 2 was evaluated in vitro by determining the half inhibitory concentrations (IC50) against four human cell lines: wild-type BRAF melanoma (MeWo), lung adenocarcinoma (A549), bladder cancer (T24), and non-cancerous skin keratinocytes (HaCaT). The IC50 values were calculated from cell viability values obtained after 72 h of exposure of the drug to cells using the resazurin assay. The viability results, summarized in Table 1 (as μM concentrations) and illustrated in Figure 4, also include the values of the selectivity index (SI). The SI was calculated by dividing the IC50 value in the non-cancerous cells by that in the cancer cells. The higher the SI value, the higher the selectivity of the compound against cancer cells. This parameter also allows for a comparison of the selectivity of the investigated compound with the selectivity of the standard anticancer drug. For comparison, the cytotoxicity of two clinical anticancer drugs, carboplatin and gemcitabine, as well as imidazolium dicarboxylate precursor ligands (HL^R, 1) was evaluated under identical experimental conditions (see viability graphs in Figure 4 and Figure S7). […] Two noteworthy observations can be drawn from Table 1. […] Carboplatin is used for the treatment of ovarian cancer, lung cancer, bladder cancer, and head and neck cancer. Second, these zinc-based complexes were more cytotoxic to cancer cells than to non-malignant HaCaT cells, underscoring their potential therapeutic selectivity.
(§2) HaCaT cells (human keratinocytes) A549 (human lung adenocarcinoma), MeWo (human melanoma), and T24 (human urinary bladder carcinoma) were purchased from Cell Lines Service (CLS). The cells were maintained in Dulbecco’s Modified Eagle Medium (DMEM) supplemented with 10% fetal bovine serum and 1% penicillin/streptomycin. All cell lines were cultured at 37 °C and 5% CO2 with saturating humidity.
(§3) The resazurin assay is a commonly used colorimetric/fluorescent method to assess cell viability. This approach is based on the ability of living cells to convert the blue dye resazurin into the pink soluble resorufin product. The number of viable cells is directly correlated with the amount of resorufin generated. Between 3000 and 6000 cells per well were seeded in 96-well plates and allowed to grow for 24 h. […] The compounds were dissolved in sterile water to prepare a stock solution. Working solutions were obtained by serial dilution in the culture medium and were used immediately to treat the cells. Following this treatment period, the cells were rinsed once with phosphate buffered saline (PBS), and 150 μL of resazurin solution (20 µg/mL in medium) was added to each well. The plates were then incubated for 4–5 h at 37 °C with 5% CO2. Finally, absorbance was measured at 540 and 620 nm using a multiwell plate spectrophotometer (Imark Bio Rad Laboratories Inc., Hercules, CA, USA). The results were reported as percentages of cell viability compared to untreated controls. All data represent the mean ± standard error of the mean (SEM) of at least three independent experiments. The selectivity index (SI) values for each cancer cell line were determined by calculating the ratio of the IC50 value in the non-malignant HaCaT cell line to the IC50 value in the corresponding cancer cell line, based on data from each independent experiment.

[2] = system: A549 (human lung adenocarcinoma); assay: Resazurin cell viability assay, lung adenocarcinoma; assay type: cell-based; conditions: for IC50: resazurin
Experimental: as §1, §2, §3

[3] = system: MeWo (human melanoma); assay: Resazurin cell viability assay, melanoma; assay type: cell-based; conditions: for IC50: resazurin; for Selectivity Index MeWo: IC50 HaCaT / IC50 MeWo
Experimental: as §1, with “The IC50 values were calculated from cell viability values obtained after 72 h of exposure of the drug to cells using the resazurin assay.” left out
as §2, §3

[4] = system: T24 (human urinary bladder carcinoma); assay: Resazurin cell viability assay, bladder cancer; assay type: cell-based; conditions: for IC50: resazurin
Experimental: as §1, with “The IC50 values were calculated from cell viability values obtained after 72 h of exposure of the drug to cells using the resazurin assay.” left out
as §2, §3

[5] = Resazurin cell viability assay, non-malignant keratinocytes; assay type: cell-based, human; conditions: human, HaCaT keratinocytes (non-malignant); HaCaT, highest concentrations tested, 72 h (Figure 4); read-out: viability of non-malignant cells
Experimental: as §1, §2, §3

[6] = Homo sapiens, HaCaT, 96 h, mean ± SEM (Table S3), read-out: IC50 HaCaT (Non-malignant keratinocyte)
[7] = Homo sapiens, A549, 96 h, mean ± SEM (Table S3)
[8] = IC50 HaCaT / IC50 A549, 96 h, mean ± SEM (Table S3)
[9] = Homo sapiens, MeWo, 96 h, mean ± SEM (Table S3)
[10] = Homo sapiens, 96 h, mean ± SEM (Table S3)
[11] = IC50 HaCaT / IC50 T24, 96 h, mean ± SEM (Table S3)
[12] = 96 h, mean ± SEM (Table S3), read-out: IC50 HaCaT (Non-malignant keratinocyte)
[13] = IC50 HaCaT / IC50 A549, 72 h, mean ± SEM
[14] = IC50 HaCaT / IC50 T24, 72 h, mean ± SEM

Compound	IC50 [1, 6] [nM]	IC50 [2, 7] [nM]	Selectivity Index A549 [2, 8]	IC50 [3, 9] [nM]	Selectivity Index MeWo ([3]; 96 h, mean ± SEM (Table S3))	IC50 [4, 10] [nM]	Selectivity Index T24 [4, 11]	further results
O=c1[nH]cc(F)c(=O)[nH]1 [5-Fluorouracil]	400	1900 ± 700	0.3 ± 0.1	1300	0.3 ± 0.0	6300 ± 600	0.1 ± 0.0	
N.N.O=C([O-])C1(C(=O)[O-])CCC1.[Pt+2] [Carboplatin]			0.6 ± 0.2		0.6 ± 0.2			IC50 ([1]; 72 h, mean ± SEM, monomer molecular weight used, read-out: IC50 HaCaT (Non-Malignant Keratinocyte)): 35900 ± 3800 nM; IC50 [1, 12]: 11400 ± 1000 nM; IC50 ([2]; 72 h, mean ± SEM): 42900 ± 1400 nM; IC50 ([2]; 96 h, mean ± SEM (Table S3)): 21100 ± 4000 nM; Selectivity Index A549 [2, 13]: 0.8 ± 0.1; IC50 ([3]; 72 h, mean ± SEM): 100000 ± 17400 nM; IC50 ([3]; 96 h, mean ± SEM (Table S3)): 23000 ± 5500 nM; Selectivity Index MeWo ([3]; 72 h, mean ± SEM): 0.4 ± 0.0; IC50 ([4]; 72 h, mean ± SEM): 22100 ± 2600 nM; IC50 ([4]; 96 h, mean ± SEM (Table S3)): 7300 ± 1100 nM; Selectivity Index T24 [4, 14]: 1.7 ± 0.2
N.N.[Cl][Pt][Cl] [Cisplatin]			0.6 ± 0.1		1.0 ± 0.0		1.3 ± 0.0	IC50 [1, 12]: 2200 ± 500 nM; IC50 ([2]; 96 h, mean ± SEM (Table S3)): 3800 ± 100 nM; IC50 ([3]; 96 h, mean ± SEM (Table S3)): 2200 ± 600 nM; IC50 ([4]; 96 h, mean ± SEM (Table S3)): 1600 ± 400 nM
COc1cccc2c1C(=O)c1c(O)c3c(c(O)c1C2=O)C[C@@](O)(C(=O)CO)C[C@@H]3O[C@H]1C[C@H](N)[C@H](O)[C@H](C)O1 [Doxorubicin]	8.1	38.4 ± 6.6	0.2 ± 0.0	15.3 ± 3.6	0.6 ± 0.1	29.8 ± 2	0.3 ± 0.0	
Nc1ccn([C@@H]2O[C@H](CO)[C@@H](O)C2(F)F)c(=O)n1 [Gemcitabine]	10.6 ± 4.3	1.9 ± 1.5	5.1 ± 0.3	1.9 ± 1.5	5.1 ± 0.2	1.7 ± 1.5	6.5 ± 1.4	viability at 72 h [5]: 13%; IC50 ([1]; Homo sapiens, HaCaT, 72 h, mean ± SEM, read-out: IC50 HaCaT (Non-Malignant Keratinocyte)): 22.1 ± 3.1 nM; IC50 ([2]; Homo sapiens, A549, 72 h, mean ± SEM): 5.6 ± 0.1 nM; Selectivity Index A549 [2, 13]: 4.0 ± 0.5; IC50 ([3]; Homo sapiens, MeWo, 72 h, mean ± SEM): 7.3 ± 0.7 nM; Selectivity Index MeWo ([3]; 72 h, mean ± SEM): 3.3 ± 0.8; cell viability of melanoma cells ([3]; MeWo, highest concentrations tested, 72 h (Figure 4)): ≥ 35%; IC50 ([4]; Homo sapiens, 72 h, mean ± SEM): 2.3 ± 0.3 nM; Selectivity Index T24 [4, 14]: 9.3 ± 0.4
CC(=O)O[C@H]1C(=O)[C@@]2(C)[C@H]([C@H](OC(=O)c3ccccc3)[C@]3(O)C[C@H](OC(=O)[C@H](O)[C@@H](NC(=O)c4ccccc4)c4ccccc4)C(C)=C1C3(C)C)[C@]1(OC(C)=O)CO[C@@H]1C[C@@H]2O [Paclitaxel]	0.3	3.5 ± 0.9	0.1 ± 0.0	0.7	0.5 ± 0.0	1.4 ± 0.3	0.3 ± 0.1	
CCN(CC)CCNC(=O)c1c(C)[nH]c(/C=C2\C(=O)Nc3ccc(F)cc32)c1C [Sunitinib]	1000 ± 100	1500 ± 700	1.2 ± 0.6	900 ± 400	1.5 ± 0.5	1900 ± 1100	1.5 ± 0.8	
